Consider twelve compounds from BindingDB's records for doi:10.3109/14756366.2011.621122 (Ondokuz Mayis University, 2012).

Common to all, as to test: CA Activity Assay
Common to all, as to conditions: pH 7.4

Experiment [1] deals with T1, Carbonic anhydrase 3 (Bos taurus, UniProt Q3SZX4).
T1 sequence (Q3SZX4 whole entry): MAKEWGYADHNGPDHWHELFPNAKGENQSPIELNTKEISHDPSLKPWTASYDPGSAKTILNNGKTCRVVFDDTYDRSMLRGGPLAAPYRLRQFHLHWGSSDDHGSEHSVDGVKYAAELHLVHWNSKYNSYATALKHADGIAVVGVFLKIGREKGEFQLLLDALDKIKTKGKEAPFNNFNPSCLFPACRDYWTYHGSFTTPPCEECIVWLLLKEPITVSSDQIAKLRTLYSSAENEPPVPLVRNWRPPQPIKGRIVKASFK

Experiment [2] has as its target Carbonic anhydrase 6 (Homo sapiens, UniProt P23280).
The target of experiment [3] is Carbonic anhydrase 1 (Homo sapiens, UniProt P00915).
Sequence of Carbonic anhydrase 1 (P00915 whole entry): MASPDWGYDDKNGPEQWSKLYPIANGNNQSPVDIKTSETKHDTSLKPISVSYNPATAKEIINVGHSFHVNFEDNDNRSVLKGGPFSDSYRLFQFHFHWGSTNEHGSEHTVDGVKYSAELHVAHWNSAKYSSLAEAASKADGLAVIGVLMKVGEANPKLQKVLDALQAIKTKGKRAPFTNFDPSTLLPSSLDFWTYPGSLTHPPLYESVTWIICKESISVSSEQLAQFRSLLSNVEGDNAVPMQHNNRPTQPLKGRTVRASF
The target in experiment [4] is Carbonic anhydrase 2 (Homo sapiens, UniProt P00918).

Sequence of Carbonic anhydrase 6 (P23280 whole entry): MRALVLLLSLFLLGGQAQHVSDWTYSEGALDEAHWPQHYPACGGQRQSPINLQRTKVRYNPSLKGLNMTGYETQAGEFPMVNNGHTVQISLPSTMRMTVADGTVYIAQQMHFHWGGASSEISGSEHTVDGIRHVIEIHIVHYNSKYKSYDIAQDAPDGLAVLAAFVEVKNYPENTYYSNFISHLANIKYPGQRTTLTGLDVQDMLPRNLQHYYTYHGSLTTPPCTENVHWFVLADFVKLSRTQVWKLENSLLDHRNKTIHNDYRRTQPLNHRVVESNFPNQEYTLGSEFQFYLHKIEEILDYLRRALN

For orientation: IC50 means the concentration at which inhibition is half-maximal. Read a high IC50 as weaker potency in that assay. In experiment [1], `c1ccc(-c2cc(OCCCN3CCCC3)nc(-c3ccccc3)n2)cc1` gave an IC50 of 66.7 µM.
One may read the Ki as a dissociation constant, usually derived from enzyme kinetics or from competition with a known ligand. A high value points to lower affinity. Turning to `Cc1ccc(NS(=O)(=O)c2ccc(C)cc2)cc1` [Carbonic anhydrase inhibitors (CAIs), 1], the Ki in experiment [2] stood at 24.3 µM; in experiment [3], 50.1 µM; in experiment [4], 1.03 µM; in experiment [1] it was 2.43 µM.
On to `Nc1ccc(S(=O)(=O)Nc2ccccn2)cc1` [MLS000069725], for which the Ki in experiment [2] was determined as 11.7 µM; in experiment [3], 26.2 µM; in experiment [4], 0.348 µM; in experiment [1], 93.2 µM.
Take `O[C@@H]1CCCC[C@@H]1O` [Carbonic anhydrase inhibitors (CAIs), 7]: the inhibitory constant (Ki) stood at 16.7 µM in experiment [2], 21.7 µM in experiment [3], 1.84 µM in experiment [4] and 1.19 µM in experiment [1].
On the same counts, the results for `Cc1ccc(S(=O)(=O)N[C@@H]2C=CCC[C@@H]2O)cc1` [Carbonic anhydrase inhibitors (CAIs), 3] are 4.48 µM, 70.2 µM, 3.72 µM and 2.67 µM.
Compound `Oc1ccccc1O` [1,2-Dihydroxybenzene, XI] returned an IC50 in experiment [1] of 5.79 µM.
Still for that read-out and setting: to `Oc1ccccc1` belongs 4.63 µM.
Turning to `Cc1ccc(S(=O)(=O)N[C@@H]2[C@@H](O)[C@@H](O)CC[C@@H]2O)cc1` [Carbonic anhydrase inhibitors (CAIs), 5], the Ki in experiment [2] is 1.12 µM; in experiment [3], 5.48 µM; in experiment [4], 0.47 µM; in experiment [1], 0.59 µM.
The corresponding values for `Cc1ccc(S(=O)(=O)N2[C@@H]3C=CCC[C@@H]3OC2(C)C)cc1` [Carbonic anhydrase inhibitors (CAIs), 4] are 275 µM, 379 µM, 21.7 µM and 57.4 µM.
On to `O[C@@H]1CCCC[C@H]1O` [(1R,2R)-trans-1,2-cyclohexanediol], for which the Ki in experiment [1] is 4.28 µM.
Turning to `Cc1ccc(S(=O)(=O)Nc2ccccc2)cc1` [CA inhibitor, 2], the Ki in experiment [2] was 13.5 µM; in experiment [3], 210 µM; in experiment [4], 14.3 µM; in experiment [1], 13.1 µM.
As for `Cc1ccc(S(=O)(=O)N[C@@H]2[C@@H](O)[C@H](O)CC[C@@H]2O)cc1` [Carbonic anhydrase inhibitors (CAIs), 6], the Ki in experiment [2] was 3.78 µM; in experiment [3], 9.34 µM; in experiment [4] it was 0.82 µM; in experiment [1], 1.75 µM.
